Consider 55 compounds from BindingDB's records for doi:10.7270/Q2736PBV (Broad Institute, 2009).

Usually EC50 stands for the midpoint of the concentration-response curve. A higher EC50 goes with a less potent agent.

The assay has as its target T1, Streptokinase A (Streptococcus pyogenes serotype M1, UniProt P10520).
T1 sequence (P10520 whole entry): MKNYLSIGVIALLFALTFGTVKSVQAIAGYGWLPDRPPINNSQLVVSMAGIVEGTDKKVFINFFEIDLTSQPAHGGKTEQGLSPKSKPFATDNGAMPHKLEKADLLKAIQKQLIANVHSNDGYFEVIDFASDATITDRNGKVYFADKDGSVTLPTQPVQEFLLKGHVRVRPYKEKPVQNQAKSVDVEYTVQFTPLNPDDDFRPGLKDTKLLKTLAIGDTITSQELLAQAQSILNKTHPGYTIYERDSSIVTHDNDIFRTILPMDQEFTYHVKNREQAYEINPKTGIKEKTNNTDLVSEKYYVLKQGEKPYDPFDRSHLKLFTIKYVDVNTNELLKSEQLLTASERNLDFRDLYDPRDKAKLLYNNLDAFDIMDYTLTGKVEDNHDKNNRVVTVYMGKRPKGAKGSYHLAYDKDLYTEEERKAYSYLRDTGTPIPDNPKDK
Description: viability-normalized secreted streptokinase activity reduction – plasminogen activation absorbance, OD405, dose response (AID 1914).
As for `CCCCCCC(=O)NNC=C1C(=O)NC(=S)N(CCCC)C1=O` [MLS000763126], the half-maximal effective concentration (EC50) is above 150 µM. The result for `COc1ccc(C2=N/C(=C\c3c(C)[nH]c4ccccc34)C(=O)O2)cc1` [(4Z)-2-(4-methoxyphenyl)-4-[(2-methyl-1H-indol-3-yl)methylidene]-1,3-oxazol-5-one] reads above 150 µM; that for `CC(=NNC(=N)Sc1cc(O)n(-c2ccc(Cl)c(Cl)c2)c1O)c1cccs1` [1-(3,4-dichlorophenyl)-2,5-dioxo-3-pyrrolidinyl 2-[1-(2-thienyl)ethylidene]hydrazinecarbimidothioate], 7.44 µM.

Take `Cn1cnnc1SCc1ccc(C(=O)N/N=C2\C(=O)N(Cc3ccc(Cl)cc3)c3ccccc32)cc1` [N-[(Z)-[1-[(4-chlorophenyl)methyl]-2-oxidanylidene-indol-3-ylidene]amino]-4-[(4-methyl-1,2,4-triazol-3-yl)sulfanylmethyl]benzamide]: the EC50 is 18 µM. To `CC(C)CN1C(=O)/C(=N\NC(=O)c2cccc(S(=O)(=O)N3CCCCC3)c2)c2ccccc21` [MLS000417389] belongs above 150 µM. For the compound `CC1=CC(C)(C)N2C(=O)/C(=N\N)c3c(C)c(C)cc1c32` [SMR000414935], the concentration for a half-maximal effect (EC50) amounted to 16.3 µM.

On to `CC(=N)C(C#N)C(=O)CSc1nc2scc(-c3ccccc3)c2c(=O)n1C` (stereo not given) [(E)-3-azanyl-2-[2-(3-methyl-4-oxidanylidene-5-phenyl-thieno[2,3-d]pyrimidin-2-yl)sulfanylethanoyl]but-2-enenitrile], for which the half-maximal effective concentration (EC50) is above 150 µM. The result for `C[N+](C)(C)c1ccc(CN=Nc2nc(Cl)c(C#N)c(Cl)c2Cl)cc1` [trimethyl-[4-[[(3,4,6-trichloro-5-cyanopyridin-2-yl)hydrazinylidene]methyl]phenyl]azanium;iodide] reads above 150 µM; that for `O=C1C2C(=NC(=S)NC2c2ccc(Cl)cc2)NC(c2ccc(Cl)cc2)N1c1ccc(Cl)cc1` (stereo not given) [SMR000155440], above 150 µM.

Regarding `CC(C)c1oc(NC(=O)Nc2ccc(Cl)c(Cl)c2)nc1O` [MLS000053797], the EC50 is above 150 µM.

`O=C1N=c2ccccc2=C1NNC(=S)NCCc1ccccc1` [1-[(2-oxo-3-indolyl)amino]-3-(2-phenylethyl)thiourea] gave an EC50 above 150 µM. To `N#CC1C(=N)SC(=N)C(C#N)C1c1c(Cl)cccc1Cl` (stereo not given) [SMR000009709] belongs 93.5 µM. `COc1cccc(-n2c(O)c3[nH][nH]c(C(=O)CN4C(=O)c5ccccc5C4=O)c-3c2=O)c1` yielded an EC50 above 150 µM. The result for `O=C(O)c1ccc(N=NCc2ccc(OC(=O)c3cccc(Cl)c3)cc2)cc1` [4-[2-[[4-[(3-chlorophenyl)-oxomethoxy]phenyl]methylidene]hydrazinyl]benzoic acid] reads above 150 µM; that for `Cc1ccc2c(c1)=C(NNC(=O)c1ccc(NS(=O)(=O)c3cccs3)cc1)C(=O)N=2` [N-[4-[[(5-methyl-2-oxoindol-3-yl)amino]carbamoyl]phenyl]thiophene-2-sulfonamide], above 150 µM. To `COc1ccc(NC(=S)NNC2=c3ccccc3=NC2=O)cc1` [SMR000413743] belongs above 150 µM; to `CC1(C)CC(=O)C(C2C3=C(CC(C)(C)CC3=O)Oc3c(Br)cc(Br)cc32)C(=O)C1` (stereo not given) [5,7-bis(bromanyl)-9-(4,4-dimethyl-2-oxidanyl-6-oxidanylidene-cyclohexen-1-yl)-3,3-dimethyl-4,9-dihydro-2H-xanthen-1-one], 24.8 µM. The compound `CC(N=Nc1nc2ccc(Cl)cc2o1)c1ccccc1` (stereo not given) [6-chloranyl-N-(1-phenylethylideneamino)-1,3-benzoxazol-2-amine] came in with a concentration giving a half-maximal response (EC50) above 150 µM.

With `O=C1C(=O)N(Cc2ccco2)C(c2cccc(Cl)c2)C1C(=O)c1ccco1` (stereo not given) [SMR000665558], the half-maximal effective concentration (EC50) was above 150 µM. In turn, `O=C(Oc1cccc(CN=Nc2nc(Nc3ccccc3)nc(N3CCOCC3)n2)c1)c1ccco1` registered an EC50 above 150 µM.

In the case of `Cc1cc(C)n(C(=O)C(C#N)N=Nc2cc(Cl)cc(Cl)c2)n1` (stereo not given) [SMR000335596], the EC50 is above 150 µM. The result for `CCn1cc(C(=O)O)c(=O)c2cc(F)c(N=NCc3ccccc3[N+](=O)[O-])cc21` [SMR000171611] reads above 150 µM.

For `CCCCCCCn1[nH]c(C)c(C(=O)c2ccccc2)c1=O` [4-benzoyl-2-heptyl-5-methyl-2,4-dihydro-3H-pyrazol-3-one], the concentration giving a half-maximal response (EC50) was above 150 µM.

In turn, `Cc1ccc(SCC(=O)C(C#N)c2nc3ccccc3s2)cc1` (stereo not given) [(2Z)-2-(3H-1,3-benzothiazol-2-ylidene)-3-keto-4-(p-tolylthio)butyronitrile] yielded a concentration for a half-maximal effect (EC50) above 150 µM.

`Cc1cc(N=NC(C)c2ccccc2O)nc(-c2ccccc2O)n1` (stereo not given) gave a 50% effective concentration (EC50) of 14 µM. Turning to `C=CCn1c(-n2c(O)cc(Cc3ccccc3)c2O)nc2ccccc21`, the concentration for a half-maximal effect (EC50) is above 150 µM.

Take `Cc1[nH]c2ccccc2c1CN=Nc1nc2ccccc2[nH]1` [N-(1H-Benzoimidazol-2-yl)-N'-[1-(2-methyl-1H-indol-3-yl)-meth-(E)-ylidene]-hydrazine]: the EC50 was above 150 µM. Regarding `C=CCn1c(SCC(=O)C(C#N)C(C)=N)nc2sc(C)c(C)c2c1=O` (stereo not given), the half-maximal effective concentration (EC50) is above 150 µM. The compound `CCOC(=O)C1=C(Cc2ccc(CC)cc2)C(=O)c2ccccc2C1=O` [(2E,3Z)-2-[ethoxy(hydroxy)methylidene]-3-[(4-ethylphenyl)methylidene]naphthalene-1,4-dione] came in with a 50% effective concentration (EC50) above 150 µM.

As for `CC(N=Nc1nc2ccccc2s1)c1ccc2c(c1)OCO2` (stereo not given), the half-maximal effective concentration (EC50) is above 150 µM. To `Cc1cc2nc(-n3c(O)c[nH]c3=S)sc2cc1C` [SMR000272190] belongs above 150 µM; to `CCCCCCC1=Cc2c/c(=C3/NN=C(c4ccccc4)O3)c(=O)oc2=CC1=O` [MLS000068623], above 150 µM.

`O=c1ccc2[n+]([O-])c3ccccc3n(O)c-2c1` [10-hydroxy-5-oxidophenazin-5-ium-2-one] returned a concentration giving a half-maximal response (EC50) above 150 µM. As to `Oc1ccccc1CN=Nc1nc(O)c(Cc2ccc(F)cc2)s1` [5-[(4-fluorophenyl)methyl]-2-[2-[(E)-(6-oxidanylidenecyclohexa-2,4-dien-1-ylidene)methyl]hydrazinyl]-1,3-thiazol-4-one], the EC50 is above 150 µM.

Compound `CCCc1sc(N=NCc2ccccn2)nc1-c1ccc(Br)cc1` [SMR000116777] showed a half-maximal effective concentration (EC50) above 150 µM. Take `Cc1ccccc1CN=Nc1nc2ccccc2[nH]1` [SMR000305031]: the half-maximal effective concentration (EC50) was above 150 µM.

Consider `O=C(N/N=C/C1C=C(Cl)C=C([N+](=O)[O-])C1=O)c1ccccc1NS(=O)(=O)c1cccs1` (stereo not given) [SMR000364876], for which the EC50 is above 150 µM. Compound `CN1C(=O)C(=NNC(=S)Nc2ccccc2F)c2cc(S(=O)(=O)N3CCOCC3)ccc21` [SMR000314843] displayed a 50% effective concentration (EC50) above 150 µM. `Cc1cc(Br)c(OCc2ccc(C(=O)NN=C3CC4CCC=C34)cc2)c(Br)c1` (stereo not given) [MLS000335385] came in with a 50% effective concentration (EC50) above 150 µM. The result for `Oc1nc(Nc2ccccn2)sc1Cc1ccc(Cl)cc1` [SMR000288952] reads above 150 µM. With `CCOc1ccc2[nH]c(=O)c(CN(CC3COCCO3)C(=O)C3CC3)cc2c1` (stereo not given) [MLS000031787], the EC50 is above 150 µM.

In the case of `C=CCN1C(=O)NC(=O)C(=C(CC)Nc2ccc(N(C)C)cc2)C1=O` [(5E)-5-[1-[4-(dimethylamino)anilino]propylidene]-1-prop-2-enyl-1,3-diazinane-2,4,6-trione], the EC50 is above 150 µM. To `Cc1cc(N=NCc2cccc(Br)c2)nc2ccccc12` [N-[(3-bromophenyl)methylideneamino]-4-methyl-2-quinolinamine] belongs above 150 µM. The result for `CN1C(=O)/C(=N\NC(=O)c2cc(-c3cccs3)nc3ccccc23)c2ccccc21` [SMR000242891] reads above 150 µM. The result for `COc1cc(CN=Nc2ncnc3sc4c(c23)CCC4)ccc1O` [SMR000242188] reads 5.06 µM; that for `Cc1ccc(O)c(C2CC(c3ccc(Cl)cc3)N=N2)c1` (stereo not given) [SMR000414826], above 150 µM; that for `N#CC(C(=O)CCl)c1nc2c(s1)CCc1ccccc1-2` (stereo not given) [MLS001171530], above 150 µM. Compound `CCOC(=O)C1C(=N)Oc2ccc3ccccc3c2C1c1ccc(O)cc1` (stereo not given) [3-amino-1-(4-hydroxyphenyl)-1H-benzo[f][1]benzopyran-2-carboxylic acid ethyl ester] came in with a half-maximal effective concentration (EC50) of 11.5 µM. Turning to `N#CC(C(=O)CN1CCN(c2ccccc2F)CC1)c1nc(-c2ccccc2)cs1` (stereo not given) [(2Z)-4-[4-(2-fluorophenyl)piperazin-1-yl]-3-oxidanylidene-2-(4-phenyl-3H-1,3-thiazol-2-ylidene)butanenitrile], the EC50 is above 150 µM. To `N#Cc1c(-c2c(Cl)cccc2Cl)noc1CC=Nc1ccc(C(=O)O)cc1` [SMR000337673] belongs above 150 µM. The result for `C[n+]1ccc(CN=Nc2nc(Cl)c(C#N)c(Cl)c2Cl)cc1` [2,4,5-trichloro-6-[2-[(1-methylpyridin-1-ium-4-yl)methylidene]hydrazinyl]pyridine-3-carbonitrile;chloride] reads above 150 µM. In turn, `COc1ccc(OC)c(C2CC(C34CC5CC(CC(C5)C3)C4)=NC(=S)N2)c1` (stereo not given) [6-Adamantan-1-yl-4-(2,5-dimethoxy-phenyl)-3,4-dihydro-1H-pyrimidine-2-thione] gave an EC50 of 14.7 µM. The result for `O=[N+]([O-])c1cccc(CN=Nc2nc(N3CCCCC3)nc(N3CCCCC3)n2)c1` [N-[(3-nitrophenyl)methylideneamino]-4,6-bis(1-piperidinyl)-1,3,5-triazin-2-amine] reads 39.4 µM.

`CCCCN1C(=O)NC(=O)C(=C(C)Nc2ccc(OCC)cc2)C1=O` [SMR000058103] came in with a 50% effective concentration (EC50) above 150 µM. Turning to `CC(C)C(N=Nc1ccccc1[N+](=O)[O-])c1ccccc1` (stereo not given) [MLS000712651], the 50% effective concentration (EC50) stood at 18.4 µM.
